In patent US10227344B2, “CK2 inhibitors, compositions and methods thereof” (Polaris Pharmaceuticals, Inc., priority 2016, dated 2019):
Where a name gives a salt, the structure may show the parent alone.

Target: purified CK2α enzyme (Homo sapiens, UniProt P68400)
Experiment: CK2 Protein Kinase Inhibition Assay (coupled PK/LDH assay)
Format: biochemical
Settings: CK2 enzyme 25 nM, 100 μM ATP, 37° C., Morrison equation
Protocol: A coupled PK (pyruvate kinase)/LDH (lactate dehydrogenase) assay was used to measure compounds' ability to inhibit purified CK2α enzyme.
The ADP product of kinase CK2a is the cofactor for PK. Phospho(enol)pyruvate (PEP) PEP is metabolized by pyruvate kinase to yield pyruvate, which is the substrate for LDH.
Serially diluted compounds were pre-incubated for 10 min at 37° C. with and 1.5 mM […] peptide substrate, 6 U/ml PK and 10 U/ml LDH (purchased from Sigma-Aldrich), 100 μM ATP, 1.2 mM NADH, 4 mM PEP in the reaction buffer (50 mM Tris (pH 8.25), 0.1 M NaCl, 10 mM magnesium acetate). The reaction was initiated by the addition of an equal volume of purified CK2 enzyme (final concentration 25 nM) diluted in the reaction buffer. Absorbance at 340 nm was measured overtime (for 30 min) at 37° C.; as NADH was converted to NAD+ the absorbance decreases. Absorbance decrease rate (per min) was plotted against the compound concentration and Ki is determined by GraphPad Prism using Morrison equation. All data points were performed in triplicate and each compound was tested in at least two separate experiments.
To this end, K, values of less than 2.5 nM are labelled as “+++”, from 2.5 nM to 10 nM are labelled as “++”, and greater than 10 nM are labelled as “+”.

purified CK2α enzyme, sequence (P68400 whole entry): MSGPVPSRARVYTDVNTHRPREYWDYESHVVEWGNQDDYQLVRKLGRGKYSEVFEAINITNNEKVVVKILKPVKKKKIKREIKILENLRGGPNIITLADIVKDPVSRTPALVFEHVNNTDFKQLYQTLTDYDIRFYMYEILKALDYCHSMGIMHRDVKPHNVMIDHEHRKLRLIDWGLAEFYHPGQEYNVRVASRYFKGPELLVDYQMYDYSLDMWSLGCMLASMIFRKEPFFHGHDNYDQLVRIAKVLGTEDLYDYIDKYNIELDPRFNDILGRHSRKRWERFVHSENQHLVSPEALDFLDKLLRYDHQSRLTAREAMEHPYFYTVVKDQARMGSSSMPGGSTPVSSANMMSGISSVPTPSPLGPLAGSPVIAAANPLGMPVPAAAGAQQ

Ki [nM]	SMILES
< 2.5	C[S+]([O-])Cc1cc(Nc2cc(NC3CC3)n3ncc(C#N)c3n2)ccc1Cl (racemic) [Example 1, (±)-5-((4-Chloro-3-((methylsulfinyl)methyl)phenyl)amino)-7-(cyclopropylamino)pyrazolo[1,5-a]pyrimidine-3-carbonitrile]
2.5 to 10	C[S+]([O-])Cc1cc(Nc2cc(NC3CC3)n3ncc(C#N)c3n2)ccc1N1CCNCC1 (racemic) [Example 14, (±)-7-(Cyclopropylamino)-5-((3-((methylsulfinyl)methyl)-4-(piperazin-1-yl)phenyl)amino)pyrazolo[1,5-a]pyrimidine-3-carbonitrile mono trifluoroacetic acid salt]
2.5 to 10	CN(c1ccc(Nc2cc(NC3CC3)n3ncc(C#N)c3n2)cc1C[S+](C)[O-])C1CNC1 (racemic) [Example 44, (±)-5-((4-(Azetidin-3-yl(methyl)amino)-3-((methylsulfinyl)methyl)phenyl)amino)-7-(cyclopropylamino)pyrazolo[1,5-a]pyrimidine-3-carbonitrile]
2.5 to 10	CC(CCN)c1ccc(Nc2cc(NC3CC3)n3ncc(C#N)c3n2)cc1C[S+](C)[O-] (racemic) [Example 64, (±)-5-((4-(R,S)-4-Aminobutan-2-yl)-3-((methylsulfinyl)methyl)phenyl)amino)-7-(cyclopropylamino)pyrazolo[1,5-a]pyrimidine-3-carbonitrile mono trifluoroacetic acid salt]
2.5 to 10	C[S+]([O-])Cc1cc(Nc2cc(NC3CC3)n3ncc(C#N)c3n2)ccc1C#N (racemic) [Example 6, (±)-5-((4-Cyano-3-((methylsulfinyl)methyl)phenyl)amino)-7-(cyclopropylamino)pyrazolo[1,5-a]pyrimidine-3-carbonitrile]
2.5 to 10	CN(CCN)c1ccc(Nc2cc(NC3CC3)c3ncc(C#N)n3n2)cc1C[S+](C)[O-] (racemic) [Example 47, (±)-6-((4-((2-Aminoethyl)(methyl)amino)-3-((methylsulfinyl)methyl)phenyl)amino)-8-(cyclopropylamino)imidazo[1,2-b]pyridazine-3-carbonitrile mono trifluoroacetic acid salt]
< 2.5	C[S+]([O-])Cc1cc(Nc2cc(NC3CC3)n3ncc(C#N)c3n2)ccc1N1CCC[C@H](N)C1 (stereo partly drawn) [Example 25, 5-((4-((S)-3-Aminopiperidin-1-yl)-3-(((R,S)-methylsulfinyl)methyl)phenyl)amino)-7-(cyclopropylamino)pyrazolo[1,5-a]pyrimidine-3-carbonitrile mono trifluoroacetic acid salt]
< 2.5	CN(c1ccc(Nc2cc(NC3CC3)n3ncc(C#N)c3n2)cc1C[S+](C)[O-])C1CC1 (racemic) [Example 36, (±)-5-((4-(Cyclopropyl(methyl)amino)-3-((methylsulfinyl)methyl)phenyl)amino)-7-(cyclopropylamino)pyrazolo[1,5-a]pyrimidine-3-carbonitrile]
< 2.5	CN(CC1CC1)c1ccc(Nc2cc(NC3CC3)n3ncc(C#N)c3n2)cc1C[S+](C)[O-] (racemic) [Example 16, (±)-7-(Cyclopropylamino)-5-((4-((cyclopropylmethyl)(methyl)amino)-3-((methylsulfinyl)methyl)phenyl)amino)pyrazolo[1,5-a]pyrimidine-3-carbonitrile]
< 2.5	C[S+]([O-])Cc1cc(Nc2cc(NC3CC3)n3ncc(C#N)c3n2)ccc1N1CC(N)C1 (racemic) [Example 40, (±)-5-((4-(3-Aminoazetidin-1-yl)-3-((methylsulfinyl)methyl)phenyl)amino)-7-(cyclopropylamino)pyrazolo[1,5-a]pyrimidine-3-carbonitrile]
< 2.5	C[S+]([O-])Cc1cc(Nc2cc(NC3CC3)n3ncc(C#N)c3n2)ccc1N1CCCC1 (racemic) [Example 46, (±)-7-(Cyclopropylamino)-5-((3-((methylsulfinyl)methyl)-4-(pyrrolidin-1-yl)phenyl)amino)pyrazolo[1,5-a]pyrimidine-3-carbonitrile]
< 2.5	CN(CCN)c1ccc(Nc2nc(NC3CC3)n3ncc(C#N)c3n2)cc1C[S+](C)[O-] (racemic) [Example 51, (±)-2-((4-((2-aminoethyl)(methyl)amino)-3-((methylsulfinyl)methyl)phenyl)amino)-4-(cyclopropylamino)pyrazolo[1,5-a][1,3,5]triazine-8-carbonitrile mono trifluoroacetic acid salt]
< 2.5	CS(=O)(=O)Cc1cc(Nc2cc(NC3CC3)n3ncc(C#N)c3n2)ccc1C1(CN)CC1 [Example 39, 5-((4-(1-(Aminomethyl)cyclopropyl)-3-((methylsulfonyl)methyl)phenyl)amino)-7-(cyclopropylamino)pyrazolo[1,5-a]pyrimidine-3-carbonitrile mono trifluoroacetic acid salt]
< 2.5	C[S+]([O-])Cc1cc(Nc2cc(NC3CC3)n3ncc(C#N)c3n2)ccc1N1CC(O)C1 (racemic) [Example 27, (±)-7-(cyclopropylamino)-5-((4-(3-hydroxyazetidin-1-yl)-3-((methylsulfinyl)methyl)phenyl)amino)pyrazolo[1,5-a]pyrimidine-3-carbonitrile]
< 2.5	CS(=O)(=O)Cc1cc(Nc2cc(NC3CC3)n3ncc(C#N)c3n2)ccc1C#N [Example 9, 5-((4-Cyano-3-((methylsulfonyl)methyl)phenyl)amino)-7-(cyclopropylamino)pyrazolo[1,5-a]pyrimidine-3-carbonitrile]
< 2.5	CN(CCN)c1ccc(Nc2cc(NC3CC3)n3ncc(C#N)c3n2)cc1CS(C)(=O)=O [Example 10, 5-((4-((2-Aminoethyl)(methyl)amino)-3-((methylsulfonyl)methyl)phenyl)amino)-7-(cyclopropylamino)pyrazolo[1,5-a]pyrimidine-3-carbonitrile mono trifluoroacetic acid salt]
2.5 to 10	CN(CCN)c1ccc(Nc2nc(NC3CC3)n3ncc(C#N)c3n2)cc1CS(C)(=O)=O [Example 52, 2-((4-((2-aminoethyl)(methyl)amino)-3-((methylsulfonyl)methyl)phenyl)amino)-4-(cyclopropylamino)pyrazolo[1,5-a][1,3,5]triazine-8-carbonitrile mono trifluoroacetic acid salt]
< 2.5	CN(C)c1ccc(Nc2cc(NC3CC3)n3ncc(C#N)c3n2)cc1CS(C)(=O)=O [Example 34, 7-(Cyclopropylamino)-5-((4-(dimethylamino)-3-((methylsulfonyl)methyl)phenyl)amino)pyrazolo[1,5-a]pyrimidine-3-carbonitrile]
2.5 to 10	CN(CCN)c1ccc(Nc2nc(NC3CC3)c3ncc(C#N)n3n2)cc1CS(C)(=O)=O [Example 50, 2-((4-((2-aminoethyl)(methyl)amino)-3-((methylsulfonyl)methyl)phenyl)amino)-4-(cyclopropylamino)imidazo[2,1-f][1,2,4]triazine-7-carbonitrile mono trifluoroacetic acid salt]
2.5 to 10	C[S+]([O-])Cc1cc(Nc2cc(NC3CC3)n3ncc(C#N)c3n2)ccc1CN (racemic) [Example 15, (±)-5-((4-(Aminomethyl)-3-((methylsulfinyl)methyl)phenyl)amino)-7-(cyclopropylamino)pyrazolo[1,5-a]pyrimidine-3-carbonitrile mono trifluoroacetic acid salt]
2.5 to 10	C[S+]([O-])Cc1cc(Nc2cc(NC3CC3)n3ncc(C#N)c3n2)ccc1C1CCCNC1 (racemic) [Example 61, (±)-7-(Cyclopropylamino)-5-((3-((methylsulfinyl)methyl)-4-((R,S)-piperidin-3-yl)phenyl)amino)pyrazolo[1,5-a]pyrimidine-3-carbonitrile mono trifluoroacetic acid salt]
< 2.5	CN(CC1(N)CC1)c1ccc(Nc2cc(NC3CC3)n3ncc(C#N)c3n2)cc1C[S+](C)[O-] (racemic) [Example 65, (±)-5-((4-(((1-Aminocyclopropyl)methyl)(methyl)amino)-3-((methylsulfinyl)methyl)phenyl)amino)-7-(cyclopropylamino)pyrazolo[1,5-a]pyrimidine-3-carbonitrile mono trifluoroacetic acid salt]
2.5 to 10	CS(=N)(=O)Cc1cc(Nc2cc(NC3CC3)n3ncc(C#N)c3n2)ccc1Cl (racemic) [Example 12, (±)-5-((4-Chloro-3-((S-methylsulfonimidoyl)methyl)phenyl)amino)-7-(cyclopropylamino)pyrazolo[1,5-a]pyrimidine-3-carbonitrile]
< 2.5	CNCCN(C)c1ccc(Nc2cc(NC3CC3)n3ncc(C#N)c3n2)cc1C[S+](C)[O-] (racemic) [Example 21, (±)-7-(Cyclopropylamino)-5-((4-(methyl(2-(methylamino)ethyl)amino)-3-((methylsulfinyl)methyl)phenyl)amino)pyrazolo[1,5-a]pyrimidine-3-carbonitrile mono trifluoroacetic acid salt]
< 2.5	C[S+]([O-])Cc1cc(Nc2cc(Nc3ccc(N)cn3)n3ncc(C#N)c3n2)ccc1N1CC[C@H](N)C1 (mixture of isomers) [Example 68, (±)-7-((5-Aminopyridin-2-yl)amino)-5-((4-((S)-3-aminopyrrolidin-1-yl)-3-((methylsulfinyl)methyl)phenyl)amino)pyrazolo[1,5-a]pyrimidine-3-carbonitrile]
